The source made the active and inactive calls. The calls are words filed in the database; no cut-off is given here.
Key:
[1] = biological target: T1, ATP-citrate synthase (Homo sapiens) (UniProt P53396); test: Inhibition of ATP citrate lyase (unknown origin) at 10 uM using sodium citrate as substrate in presence of CoA/ATP by ADP-Glo luminescence assay relative to control
T1 sequence (whole entry): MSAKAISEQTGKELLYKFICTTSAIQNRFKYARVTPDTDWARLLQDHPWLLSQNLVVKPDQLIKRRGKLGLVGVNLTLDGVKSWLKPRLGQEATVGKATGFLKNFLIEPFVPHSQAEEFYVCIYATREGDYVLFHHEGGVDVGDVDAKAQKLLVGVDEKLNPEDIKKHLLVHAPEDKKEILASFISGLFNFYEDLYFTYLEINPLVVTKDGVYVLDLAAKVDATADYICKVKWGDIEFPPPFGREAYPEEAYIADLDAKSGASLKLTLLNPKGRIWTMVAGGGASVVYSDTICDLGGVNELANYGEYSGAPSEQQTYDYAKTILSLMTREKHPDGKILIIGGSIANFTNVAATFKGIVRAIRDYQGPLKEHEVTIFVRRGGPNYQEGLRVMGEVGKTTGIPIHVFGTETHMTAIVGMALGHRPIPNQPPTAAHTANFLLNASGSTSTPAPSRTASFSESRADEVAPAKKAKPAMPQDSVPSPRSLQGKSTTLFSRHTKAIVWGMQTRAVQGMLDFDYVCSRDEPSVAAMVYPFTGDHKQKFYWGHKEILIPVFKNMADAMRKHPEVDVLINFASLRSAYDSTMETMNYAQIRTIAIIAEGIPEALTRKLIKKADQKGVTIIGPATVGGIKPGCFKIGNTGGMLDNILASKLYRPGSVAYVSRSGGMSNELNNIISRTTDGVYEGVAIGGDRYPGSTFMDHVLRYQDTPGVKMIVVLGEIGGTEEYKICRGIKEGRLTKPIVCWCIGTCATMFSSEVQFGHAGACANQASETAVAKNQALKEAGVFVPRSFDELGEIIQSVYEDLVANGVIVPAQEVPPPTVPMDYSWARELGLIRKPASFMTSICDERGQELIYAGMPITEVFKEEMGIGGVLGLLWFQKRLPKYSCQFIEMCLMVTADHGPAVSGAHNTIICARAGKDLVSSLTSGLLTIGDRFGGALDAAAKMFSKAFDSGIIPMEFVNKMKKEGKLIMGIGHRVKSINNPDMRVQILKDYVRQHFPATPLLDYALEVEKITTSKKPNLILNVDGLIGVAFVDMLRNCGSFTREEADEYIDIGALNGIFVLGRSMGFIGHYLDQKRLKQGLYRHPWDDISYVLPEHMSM

[2] = biological target: T1, ATP-citrate synthase (Homo sapiens); test: Inhibition of ATP citrate lyase (unknown origin) at 100 uM using sodium citrate as substrate in presence of CoA/ATP by ADP-Glo luminescence assay relative to control
[3] = biological target: T1, ATP-citrate synthase (Homo sapiens); test: Competitive inhibition of ATP citrate lyase (unknown origin) using sodium citrate as substrate by ADP-Glo luminescence assay
[4] = biological target: T2, ATP-citrate synthase (Homo sapiens, UniProt P53396); test: Inhibition of ATP citrate lyase (unknown origin) using sodium citrate as substrate by ADP-Glo luminescence assay
T2 sequence (P53396 whole entry): T1 sequence (whole entry)

SMILES | inhibition [1] [%] | inhibition [2] [%] | inhibition [3] | IC50 [4] [µM]
Cc1oc2ccc(OC(C(=O)O)c3ccccc3)cc2c1C(=O)O (centres undefined) | 6 | 9 | – | –
Cc1c(OCc2ccc(C(=O)O)o2)ccc2c3c(c(=O)oc12)CCCC3 | 18 | 88 | – | –
O=C(O)C[C@@](O)(C(=O)O)[C@H](O)C(=O)O | – | – | Active | –
Cc1oc2c(cc(NS(=O)(=O)c3ccc(C(C)(C)C)cc3)c3ccccc32)c1C(=O)O | 16 | 59 | – | –
O=C(O)c1ccc(COc2ccc3c(c2)oc(=O)c2ccccc23)o1 | 9 | 49 | – | –
Cc1oc(C(=O)O)cc1COc1ccc2c3c(c(=O)oc2c1C)CCCC3 | 17 | 90 | – | –
CCc1ccc(S(=O)(=O)Nc2cc3c(C(=O)O)c(C)oc3c3ccccc23)cc1 | 42 | 97 | – | 13.8
Cc1oc(C(=O)O)cc1COc1ccc2c(c1)oc(=O)c1ccccc12 | 3 | 64 | – | –
O=C(O)C[C@@](O)(C[C@H](O)CCCCCCc1ccc(Cl)cc1Cl)C(=O)O | – | – | Active | –
Cc1ccc(S(=O)(=O)Nc2cc3c(C(=O)O)c(C)oc3c3ccccc23)cc1 | 12 | 42 | – | –
COc1ccc(-c2ccccc2)cc1NS(=O)(=O)c1cc(Cl)cc(Cl)c1O | – | – | – | 0.377
Cc1oc2c(cc(NS(=O)(=O)c3ccc(F)cc3)c3ccccc32)c1C(=O)O | 28 | 95 | – | –
Cc1oc(C(=O)O)cc1COc1ccc2c(C)c(Cc3ccccc3)c(=O)oc2c1 | 45 | 101 | – | 11.9
CCCCCCc1cc2c3c(c(=O)oc2cc1OCc1cc(C(=O)O)oc1C)CCCC3 | 95 | 100 | – | –
Cc1oc(C(=O)O)cc1COc1ccc2c(oc(=O)c3ccccc32)c1C | 32 | 84 | – | –

Reference: ChEMBL document CHEMBL4000242, “Discovery of furan carboxylate derivatives as novel inhibitors of ATP-citrate lyase via virtual high-throughput screening” (Bioorg Med Chem Lett, 2017)
